Test results: ChEMBL document CHEMBL1909046, “DrugMatrix in vitro pharmacology data”

How the values were obtained:
[1] = target: Sodium-dependent noradrenaline transporter (Homo sapiens, UniProt P23975); assay: DRUGMATRIX: Norepinephrine Transporter radioligand binding (ligand: [125I] RTI-55); format: cell membranes, MDCK, Membrane; settings: Not Active = under 50% inhibition at 10 µM
[2] = target: Beta-1 adrenergic receptor (Homo sapiens, UniProt P08588); assay: DRUGMATRIX: Adrenergic beta1 radioligand binding (ligand: [125I] Cyanopindolol); format: cell membranes, CHO-K1, Membrane; settings: cho-k1; Not Active = under 50% inhibition at 10 µM
[3] = target: T1, Vasoactive intestinal polypeptide receptor 1 (Homo sapiens, UniProt P32241); format: cell membranes, Membrane; settings: ht-29; further: in other assays of this panel Not Active means under 50% inhibition at 10 µM
T1 sequence (P32241 whole entry): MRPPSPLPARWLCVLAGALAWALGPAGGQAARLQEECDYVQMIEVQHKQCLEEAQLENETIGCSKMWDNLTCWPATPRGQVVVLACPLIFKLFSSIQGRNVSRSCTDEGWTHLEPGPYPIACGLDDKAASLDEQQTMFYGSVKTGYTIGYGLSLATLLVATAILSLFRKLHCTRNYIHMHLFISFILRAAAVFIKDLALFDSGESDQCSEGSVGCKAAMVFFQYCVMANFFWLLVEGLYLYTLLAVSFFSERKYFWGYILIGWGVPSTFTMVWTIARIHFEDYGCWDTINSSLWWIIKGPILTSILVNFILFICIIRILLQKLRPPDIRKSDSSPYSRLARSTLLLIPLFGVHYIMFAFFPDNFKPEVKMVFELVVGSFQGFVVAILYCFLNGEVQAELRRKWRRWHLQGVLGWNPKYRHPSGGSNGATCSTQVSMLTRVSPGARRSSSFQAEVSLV

Acetylcholinesterase = Acetylcholinesterase (Homo sapiens, UniProt P22303); assay: DRUGMATRIX: Acetylcholinesterase enzyme inhibition (substrate: acetylthiocholine); format: cell-based, HEK293; settings: hek293; Not Active = under 50% inhibition at 10 µM
Carbonic anhydrase 2 = Carbonic anhydrase 2 (Homo sapiens, UniProt P00918); assay: DRUGMATRIX: Carbonic Anhydrase II enzyme inhibition (substrate: 4-Nitrophenyl acetate (4-NPA)); format: tissue-based, Erythrocyte; settings: erythrocyte; Not Active = under 50% inhibition at 10 µM
[4] = DRUGMATRIX: Platelet-Derived Growth Factor (PDGF) radioligand binding (ligand: [125I] PDGF); format: cell-based; settings: nih3t3; Not Active = under 50% inhibition at 10 µM
Melanocortin receptor 5 = Melanocortin receptor 5 (Homo sapiens, UniProt P33032); format: cell membranes, Membrane; settings: hek293; further: in other assays of this panel Not Active means under 50% inhibition at 10 µM
Chain of Melanocortin receptor 5 (P33032 whole entry): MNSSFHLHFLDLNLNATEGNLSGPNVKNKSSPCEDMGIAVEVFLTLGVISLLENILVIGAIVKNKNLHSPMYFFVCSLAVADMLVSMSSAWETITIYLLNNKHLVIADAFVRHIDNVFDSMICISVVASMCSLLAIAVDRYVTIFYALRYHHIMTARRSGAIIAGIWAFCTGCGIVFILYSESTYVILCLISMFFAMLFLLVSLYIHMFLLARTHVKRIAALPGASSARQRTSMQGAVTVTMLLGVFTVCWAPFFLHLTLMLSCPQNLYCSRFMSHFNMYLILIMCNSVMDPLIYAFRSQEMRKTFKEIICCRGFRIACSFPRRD

Chain of Acetylcholinesterase (P22303 whole entry): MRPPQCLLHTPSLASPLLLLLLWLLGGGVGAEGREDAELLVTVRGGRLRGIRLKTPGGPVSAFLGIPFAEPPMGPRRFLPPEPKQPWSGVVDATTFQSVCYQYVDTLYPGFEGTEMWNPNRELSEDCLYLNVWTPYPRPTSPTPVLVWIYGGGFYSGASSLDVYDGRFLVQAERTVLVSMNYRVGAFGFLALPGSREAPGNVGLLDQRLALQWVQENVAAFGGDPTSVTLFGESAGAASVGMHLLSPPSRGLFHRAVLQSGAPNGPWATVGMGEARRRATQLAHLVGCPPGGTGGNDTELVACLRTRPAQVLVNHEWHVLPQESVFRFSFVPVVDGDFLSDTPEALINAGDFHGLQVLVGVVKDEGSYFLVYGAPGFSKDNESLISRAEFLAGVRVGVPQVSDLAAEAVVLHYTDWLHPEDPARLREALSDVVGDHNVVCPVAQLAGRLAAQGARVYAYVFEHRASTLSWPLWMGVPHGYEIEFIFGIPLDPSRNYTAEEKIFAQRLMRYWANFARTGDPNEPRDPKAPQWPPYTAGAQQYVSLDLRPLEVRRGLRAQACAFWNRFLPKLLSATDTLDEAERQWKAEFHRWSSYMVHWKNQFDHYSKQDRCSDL
Chain of Sodium-dependent noradrenaline transporter (P23975 whole entry): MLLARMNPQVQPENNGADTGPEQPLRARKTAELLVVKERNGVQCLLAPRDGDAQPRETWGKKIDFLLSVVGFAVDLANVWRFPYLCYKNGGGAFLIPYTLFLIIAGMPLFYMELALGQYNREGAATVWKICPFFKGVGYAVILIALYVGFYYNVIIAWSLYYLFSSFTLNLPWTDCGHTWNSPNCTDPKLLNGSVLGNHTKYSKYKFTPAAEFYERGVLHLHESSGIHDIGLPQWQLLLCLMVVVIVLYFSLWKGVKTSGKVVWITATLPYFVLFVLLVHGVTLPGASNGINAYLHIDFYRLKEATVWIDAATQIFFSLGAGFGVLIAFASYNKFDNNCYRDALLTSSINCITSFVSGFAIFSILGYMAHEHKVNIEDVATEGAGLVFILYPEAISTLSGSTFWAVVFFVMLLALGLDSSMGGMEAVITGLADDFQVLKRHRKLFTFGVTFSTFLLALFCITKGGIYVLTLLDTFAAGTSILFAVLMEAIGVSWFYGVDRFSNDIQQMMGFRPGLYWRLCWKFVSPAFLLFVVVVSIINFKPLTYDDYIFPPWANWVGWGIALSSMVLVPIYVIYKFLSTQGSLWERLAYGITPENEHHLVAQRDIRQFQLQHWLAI
Chain of Beta-1 adrenergic receptor (P08588 whole entry): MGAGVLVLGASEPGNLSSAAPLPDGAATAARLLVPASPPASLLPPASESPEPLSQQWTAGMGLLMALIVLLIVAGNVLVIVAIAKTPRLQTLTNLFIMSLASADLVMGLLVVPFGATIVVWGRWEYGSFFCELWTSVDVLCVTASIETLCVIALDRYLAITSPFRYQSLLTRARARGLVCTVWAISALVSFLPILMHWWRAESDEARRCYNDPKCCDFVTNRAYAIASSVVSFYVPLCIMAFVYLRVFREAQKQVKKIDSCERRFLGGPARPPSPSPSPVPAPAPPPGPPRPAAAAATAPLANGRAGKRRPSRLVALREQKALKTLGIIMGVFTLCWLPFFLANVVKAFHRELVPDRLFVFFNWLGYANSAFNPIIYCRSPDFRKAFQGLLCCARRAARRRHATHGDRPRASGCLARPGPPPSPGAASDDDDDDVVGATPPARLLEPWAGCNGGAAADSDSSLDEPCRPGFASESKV

| Compound | IC50 ([1]; mdck) | IC50 [2] | IC50 [3] | IC50 (Acetylcholinesterase) | IC50 (Carbonic anhydrase 2) | IC50 [4] | Ki [4] | IC50 (Melanocortin receptor 5) | Ki (Carbonic anhydrase 2) | IC50 ([1]; read-out: IC50) | Ki ([1]; read-out: Ki) |
| --- | --- | --- | --- | --- | --- | --- | --- | --- | --- | --- | --- |
| ClC(Cl)Cl [CHLOROFORM] | Not Active | Not Active | Not Active | Not Active | Not Active | Not Active | Not Active | Not Active |  |  |  |
| C=C1CC[C@H](O)C/C1=C/C=C1\CCC[C@]2(C)[C@@H]([C@H](C)CCCC(C)C)CC[C@@H]12 [CHOLECALCIFEROL] | Not Active | Not Active | Not Active | Not Active | Not Active | Not Active | Not Active | Not Active |  |  |  |
| C[N+](C)(C)CCO.[Cl-] [CHOLINE CHLORIDE] | Not Active | Not Active | Not Active | Not Active | Not Active | Not Active | Not Active | Not Active |  |  |  |
| CCOC(=O)C(C)(C)Oc1ccc(Cl)cc1 [CLOFIBRATE] | Not Active | Not Active | Not Active | Not Active | Not Active | Not Active | Not Active | Not Active |  |  |  |
| CC(=O)OCC(=O)[C@@]1(O)CC[C@H]2[C@@H]3CCC4=CC(=O)CC[C@]4(C)[C@H]3C(=O)C[C@@]21C [CORTISONE ACETATE] | Not Active | Not Active | Not Active | Not Active | Not Active | Not Active | Not Active | Not Active |  |  |  |
| O=c1ccc2ccccc2o1 [COUMARIN] | Not Active | Not Active | Not Active | Not Active | Not Active | Not Active | Not Active | Not Active |  |  |  |
| C[C@@H]1C[C@@H]([C@H](O)CC2CC(=O)NC(=O)C2)C(=O)[C@@H](C)C1 [CYCLOHEXIMIDE] | Not Active | Not Active | Not Active | Not Active | Not Active | Not Active | Not Active | Not Active |  |  |  |
| C/C=C/C[C@@H](C)[C@@H](O)[C@H]1C(=O)N[C@@H](CC)C(=O)N(C)CC(=O)N(C)[C@@H](CC(C)C)C(=O)N[C@@H](C(C)C)C(=O)N(C)[C@@H](CC(C)C)C(=O)N[C@@H](C)C(=O)N[C@H](C)C(=O)N(C)[C@@H](CC(C)C)C(=O)N(C)[C@@H](CC(C)C)C(=O)N(C)[C@@H](C(C)C)C(=O)N1C [CYCLOSPORINE] | Not Active | Not Active | Not Active | Not Active | Not Active | Not Active | Not Active | Not Active |  |  |  |
| CN(C)/N=N/c1[nH]cnc1C(N)=O [DACARBAZINE] | Not Active | Not Active | Not Active | Not Active | Not Active | Not Active | Not Active | Not Active |  |  |  |
| COc1ccc2c(c1)[C@]13CCCC[C@@H]1[C@H](C2)N(C)CC3 [DEXTROMETHORPHAN] | Not Active | Not Active | Not Active | Not Active | Not Active | Not Active | Not Active | Not Active |  |  |  |
| CC(=O)Nc1c(I)c(NC(C)=O)c(I)c(C(=O)O)c1I [DIATRIZOIC ACID] | Not Active | Not Active | Not Active | Not Active | Not Active | Not Active | Not Active | Not Active |  |  |  |
| COP(=O)(OC)OC=C(Cl)Cl [DICHLORVOS] | Not Active | Not Active | Not Active | Not Active | Not Active | Not Active | Not Active | Not Active |  |  |  |
| O=C(O)Cc1ccccc1Nc1c(Cl)cccc1Cl [DICLOFENAC] | Not Active | Not Active | Not Active | Not Active | Not Active | Not Active | Not Active | Not Active |  |  |  |
| C[C@H]1O[C@@H](O[C@H]2[C@@H](O)C[C@H](O[C@H]3[C@@H](O)C[C@H](O[C@H]4CC[C@@]5(C)[C@H](CC[C@@H]6[C@@H]5CC[C@]5(C)[C@@H](C7=CC(=O)OC7)CC[C@]65O)C4)O[C@@H]3C)O[C@@H]2C)C[C@H](O)[C@@H]1O [DIGITOXIN] | Not Active | Not Active | Not Active | Not Active | Not Active | Not Active | Not Active | Not Active |  |  |  |
| CCN1CC(CCN2CCOCC2)C(c2ccccc2)(c2ccccc2)C1=O (stereo not given) [DOXAPRAM] | Not Active | Not Active | Not Active | Not Active |  | Not Active | Not Active | Not Active | Not Active |  |  |
| Cn1c(=O)c2c(ncn2CC2OCCO2)n(C)c1=O [DOXOFYLLINE] | Not Active | Not Active | Not Active | Not Active | Not Active | Not Active | Not Active | Not Active |  |  |  |
| COc1cccc2c1C(=O)c1c(O)c3c(c(O)c1C2=O)C[C@@](O)(C(=O)CO)C[C@@H]3O[C@H]1C[C@H](N)[C@H](O)[C@H](C)O1 [DOXORUBICIN] | Not Active | Not Active | Not Active | Not Active | Not Active | Not Active | Not Active | Not Active |  |  |  |
| COc1cccc2c1C(=O)c1c(O)c3c(c(O)c1C2=O)C[C@@](O)(C(=O)CO)C[C@@H]3O[C@H]1C[C@H](N)[C@@H](O)[C@H](C)O1 [EPIRUBICIN] | Not Active | Not Active | Not Active | Not Active | Not Active | Not Active | Not Active | Not Active |  |  |  |
| C[C@]12CC[C@@H]3c4ccc(OC(=O)c5ccccc5)cc4CC[C@H]3[C@@H]1CC[C@@H]2O [ESTRADIOL BENZOATE] |  | Not Active | Not Active | Not Active | Not Active | Not Active | Not Active | Not Active |  | 17.2 µM | 17.1 µM |
| C[C@]12CC[C@@H]3c4ccc(O)cc4CC[C@H]3[C@@H]1CC[C@@H]2O [ESTRADIOL] | Not Active | Not Active | Not Active | Not Active | Not Active | Not Active | Not Active | Not Active |  |  |  |
| CC[C@@H](CO)NCCN[C@@H](CC)CO [ETHAMBUTOL] | Not Active | Not Active | Not Active | Not Active | Not Active | Not Active | Not Active | Not Active |  |  |  |
| CC1(C)O[C@@H]2C[C@H]3[C@@H]4C[C@H](F)C5=CC(=O)C=C[C@]5(C)[C@H]4[C@@H](O)C[C@]3(C)[C@]2(C(=O)CO)O1 [FLUNISOLIDE] | Not Active | Not Active | Not Active | Not Active | Not Active | Not Active | Not Active | Not Active |  |  |  |
| CC1(C)O[C@@H]2C[C@H]3[C@@H]4C[C@H](F)C5=CC(=O)C=C[C@]5(C)[C@@]4(F)[C@@H](O)C[C@]3(C)[C@]2(C(=O)CO)O1 [FLUOCINOLONE ACETONIDE] | Not Active | Not Active | Not Active | Not Active | Not Active | Not Active | Not Active | Not Active |  |  |  |
